The results in this text go back to ChEMBL document CHEMBL5291721, “A preclinical secondary pharmacology resource illuminates target-adverse drug reaction associations of marketed drugs” (Nat Commun, 2023).

Where only a bound is given, the exact number is not on record here.

One test has as its target D(1A) dopamine receptor (Homo sapiens, UniProt P21728).
A further test deals with Prothrombin (Homo sapiens, UniProt P00734). Type of test: functional.
Test [1] concerns the target T1, 5-hydroxytryptamine receptor 1A (Homo sapiens, UniProt P08908).
T1 sequence (P08908 whole entry): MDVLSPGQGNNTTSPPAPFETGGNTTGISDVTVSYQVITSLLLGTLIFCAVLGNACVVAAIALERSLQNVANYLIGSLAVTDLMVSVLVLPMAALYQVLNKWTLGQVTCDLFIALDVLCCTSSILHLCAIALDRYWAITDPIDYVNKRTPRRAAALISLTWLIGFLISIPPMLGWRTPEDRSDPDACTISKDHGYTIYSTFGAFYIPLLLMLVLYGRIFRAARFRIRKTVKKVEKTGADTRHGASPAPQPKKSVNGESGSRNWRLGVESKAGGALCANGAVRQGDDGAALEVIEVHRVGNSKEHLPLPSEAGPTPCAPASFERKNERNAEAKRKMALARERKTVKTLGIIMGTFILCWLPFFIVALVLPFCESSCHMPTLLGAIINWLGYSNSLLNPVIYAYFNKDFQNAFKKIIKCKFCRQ

Test [2] concerns the target Vascular endothelial growth factor receptor 2 (Homo sapiens, UniProt P35968). In kind it is functional.
The target of a further test is Mu-type opioid receptor (Homo sapiens, UniProt P35372).
Chain of Mu-type opioid receptor (P35372 whole entry): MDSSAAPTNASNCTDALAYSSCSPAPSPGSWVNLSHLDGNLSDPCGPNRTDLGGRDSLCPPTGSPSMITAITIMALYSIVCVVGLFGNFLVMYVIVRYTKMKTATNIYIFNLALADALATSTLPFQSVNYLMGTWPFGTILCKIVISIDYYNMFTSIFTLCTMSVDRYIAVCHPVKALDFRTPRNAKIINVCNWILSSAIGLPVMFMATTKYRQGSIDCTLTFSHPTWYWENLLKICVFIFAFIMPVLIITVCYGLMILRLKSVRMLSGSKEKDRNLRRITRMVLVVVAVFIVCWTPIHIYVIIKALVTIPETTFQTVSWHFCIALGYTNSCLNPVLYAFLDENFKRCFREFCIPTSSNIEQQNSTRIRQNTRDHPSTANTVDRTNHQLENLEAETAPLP
The next test concerns the target T2, Progesterone receptor (Homo sapiens, UniProt P06401).
T2 sequence (P06401 whole entry): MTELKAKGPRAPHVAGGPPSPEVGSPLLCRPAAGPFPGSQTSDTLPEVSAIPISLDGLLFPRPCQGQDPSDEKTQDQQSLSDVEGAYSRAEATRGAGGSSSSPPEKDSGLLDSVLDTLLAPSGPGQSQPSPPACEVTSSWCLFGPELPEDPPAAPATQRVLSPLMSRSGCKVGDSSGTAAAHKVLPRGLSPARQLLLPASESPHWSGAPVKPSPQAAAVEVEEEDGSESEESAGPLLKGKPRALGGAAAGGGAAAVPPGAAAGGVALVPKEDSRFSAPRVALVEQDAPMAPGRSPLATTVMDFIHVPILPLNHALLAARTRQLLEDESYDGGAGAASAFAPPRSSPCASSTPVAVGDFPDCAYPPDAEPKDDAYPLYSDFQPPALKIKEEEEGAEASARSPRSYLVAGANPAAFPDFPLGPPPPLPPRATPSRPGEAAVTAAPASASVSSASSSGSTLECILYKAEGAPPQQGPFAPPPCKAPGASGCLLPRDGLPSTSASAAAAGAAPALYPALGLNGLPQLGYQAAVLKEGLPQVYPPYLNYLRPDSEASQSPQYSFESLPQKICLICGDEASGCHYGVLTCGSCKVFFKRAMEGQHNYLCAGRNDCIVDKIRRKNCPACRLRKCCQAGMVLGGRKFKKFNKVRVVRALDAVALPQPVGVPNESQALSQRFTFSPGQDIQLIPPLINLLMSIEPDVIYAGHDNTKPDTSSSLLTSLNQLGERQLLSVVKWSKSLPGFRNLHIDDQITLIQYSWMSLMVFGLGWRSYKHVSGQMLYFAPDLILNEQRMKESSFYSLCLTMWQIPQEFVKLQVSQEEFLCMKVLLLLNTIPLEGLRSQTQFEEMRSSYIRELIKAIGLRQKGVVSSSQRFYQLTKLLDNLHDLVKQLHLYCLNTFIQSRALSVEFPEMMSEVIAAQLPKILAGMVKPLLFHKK

The target of test [3] is Sodium-dependent noradrenaline transporter (Homo sapiens, UniProt P23975).
Chain of Sodium-dependent noradrenaline transporter (P23975 whole entry): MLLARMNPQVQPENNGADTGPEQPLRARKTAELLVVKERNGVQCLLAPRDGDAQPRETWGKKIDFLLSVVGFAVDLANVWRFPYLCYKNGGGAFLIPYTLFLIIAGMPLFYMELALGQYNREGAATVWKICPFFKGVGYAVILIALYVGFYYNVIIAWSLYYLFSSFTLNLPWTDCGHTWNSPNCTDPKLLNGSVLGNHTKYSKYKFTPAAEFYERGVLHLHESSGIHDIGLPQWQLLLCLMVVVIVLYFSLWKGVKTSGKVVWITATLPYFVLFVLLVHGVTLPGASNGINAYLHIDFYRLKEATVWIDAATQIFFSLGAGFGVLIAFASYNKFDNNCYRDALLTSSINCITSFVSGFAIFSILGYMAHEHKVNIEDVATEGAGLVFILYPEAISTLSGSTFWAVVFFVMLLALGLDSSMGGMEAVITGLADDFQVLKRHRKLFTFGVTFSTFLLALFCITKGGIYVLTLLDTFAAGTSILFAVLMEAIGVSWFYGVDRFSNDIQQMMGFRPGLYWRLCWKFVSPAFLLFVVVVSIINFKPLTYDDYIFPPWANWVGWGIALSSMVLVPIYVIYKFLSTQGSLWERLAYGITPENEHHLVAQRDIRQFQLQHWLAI
Further: assay procedure not described here.

Chain of D(1A) dopamine receptor (P21728 whole entry): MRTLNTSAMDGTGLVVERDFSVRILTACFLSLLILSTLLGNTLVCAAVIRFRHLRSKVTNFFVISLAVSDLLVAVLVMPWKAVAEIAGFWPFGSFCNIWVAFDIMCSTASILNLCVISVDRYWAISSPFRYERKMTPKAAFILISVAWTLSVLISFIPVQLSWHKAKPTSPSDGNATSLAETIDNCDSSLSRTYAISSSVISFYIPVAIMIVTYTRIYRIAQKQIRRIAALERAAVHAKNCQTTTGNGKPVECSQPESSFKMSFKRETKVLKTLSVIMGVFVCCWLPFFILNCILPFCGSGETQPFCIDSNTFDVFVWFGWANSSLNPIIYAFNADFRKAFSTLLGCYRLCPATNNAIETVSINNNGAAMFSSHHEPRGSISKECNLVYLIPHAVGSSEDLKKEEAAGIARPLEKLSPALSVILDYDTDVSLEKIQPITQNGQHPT
Chain of Vascular endothelial growth factor receptor 2 (P35968 whole entry): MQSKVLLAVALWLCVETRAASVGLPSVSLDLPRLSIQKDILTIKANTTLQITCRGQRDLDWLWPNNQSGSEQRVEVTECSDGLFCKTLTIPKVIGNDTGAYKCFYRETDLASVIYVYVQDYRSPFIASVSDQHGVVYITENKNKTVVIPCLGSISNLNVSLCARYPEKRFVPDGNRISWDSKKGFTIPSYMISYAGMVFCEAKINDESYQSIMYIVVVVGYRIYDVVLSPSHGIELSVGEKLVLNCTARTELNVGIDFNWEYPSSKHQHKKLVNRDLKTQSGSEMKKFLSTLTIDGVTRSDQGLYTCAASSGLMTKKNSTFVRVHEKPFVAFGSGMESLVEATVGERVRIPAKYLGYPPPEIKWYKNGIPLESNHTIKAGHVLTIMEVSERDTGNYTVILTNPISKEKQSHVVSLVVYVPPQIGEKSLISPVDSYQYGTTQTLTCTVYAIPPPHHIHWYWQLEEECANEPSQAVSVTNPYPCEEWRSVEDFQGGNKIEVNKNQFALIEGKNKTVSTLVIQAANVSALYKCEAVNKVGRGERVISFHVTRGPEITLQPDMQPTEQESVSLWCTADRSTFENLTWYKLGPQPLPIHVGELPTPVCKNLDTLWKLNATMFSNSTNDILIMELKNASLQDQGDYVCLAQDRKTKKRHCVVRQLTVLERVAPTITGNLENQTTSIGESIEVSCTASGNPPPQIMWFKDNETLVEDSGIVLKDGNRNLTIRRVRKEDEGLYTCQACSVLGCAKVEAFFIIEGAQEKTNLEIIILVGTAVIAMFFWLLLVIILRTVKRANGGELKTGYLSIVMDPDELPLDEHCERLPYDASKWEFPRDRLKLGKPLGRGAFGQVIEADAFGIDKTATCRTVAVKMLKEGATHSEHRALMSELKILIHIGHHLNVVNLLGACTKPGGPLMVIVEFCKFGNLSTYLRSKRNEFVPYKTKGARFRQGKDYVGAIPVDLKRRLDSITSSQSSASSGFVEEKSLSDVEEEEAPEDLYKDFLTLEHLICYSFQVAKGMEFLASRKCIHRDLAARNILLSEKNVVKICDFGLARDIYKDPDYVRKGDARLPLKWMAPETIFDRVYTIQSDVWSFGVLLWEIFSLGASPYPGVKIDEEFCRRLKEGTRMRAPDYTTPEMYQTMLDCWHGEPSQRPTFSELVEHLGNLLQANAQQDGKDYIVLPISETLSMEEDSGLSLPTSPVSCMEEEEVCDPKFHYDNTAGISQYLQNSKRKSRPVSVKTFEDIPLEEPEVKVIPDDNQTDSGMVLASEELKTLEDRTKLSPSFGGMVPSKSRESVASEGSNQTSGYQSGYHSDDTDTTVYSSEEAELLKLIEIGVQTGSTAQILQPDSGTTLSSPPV

What is called AC50 is the concentration at which the activity in the assay is half-maximal. As to `CCCc1nc(C(C)(C)O)c(C(=O)O)n1Cc1ccc(-c2ccccc2-c2nnn[nH]2)cc1` [OLMESARTAN], the concentration at half-maximal activity (AC50) (on D(1A) dopamine receptor; at Prothrombin; in test [1]; in test [2]; on Mu-type opioid receptor; at Progesterone receptor) was over 30 µM each time. In test [3], this molecule came in with an AC50 of over 30 µM.

`Cc1ccccc1N1CCN(CCc2nnc3n2CCCC3)CC1` [DAPIPRAZOLE]: the AC50 was over 30 µM at D(1A) dopamine receptor; over 30 µM on Prothrombin; 0.628 µM in test [1]; over 30 µM in test [2]; over 30 µM on Mu-type opioid receptor; over 30 µM on Progesterone receptor. In test [3], this molecule gave an AC50 of over 30 µM.

As to `CC(N)Cc1ccc(O)cc1` (centres undefined) [HYDROXYAMPHETAMINE], the half-maximal activity concentration (AC50) (at D(1A) dopamine receptor; at Prothrombin; in test [1]; in test [2]; at Mu-type opioid receptor; on Progesterone receptor) was over 30 µM in each case. For the same molecule, the AC50 in test [3] is 9.66 µM.

Regarding `Cc1cc(NC(=O)C2=C(O)c3ccccc3S(=O)(=O)N2C)no1` [ISOXICAM], the concentration at half-maximal activity (AC50) was over 30 µM on D(1A) dopamine receptor; over 30 µM on Prothrombin; over 30 µM in test [1]; 24.4 µM in test [2]; over 30 µM on Mu-type opioid receptor; over 30 µM on Progesterone receptor. In test [3], this molecule yielded an AC50 of over 30 µM.

For `NC(=O)OCC(O)COc1ccc(Cl)cc1` (centres undefined) [CHLORPHENESIN CARBAMATE], the AC50 (on D(1A) dopamine receptor; on Prothrombin; in test [1]; in test [2]; on Mu-type opioid receptor; at Progesterone receptor) was over 30 µM in each case. Also, in test [3], the concentration at half-maximal activity (AC50) was over 30 µM.

As to `NCC(CC(=O)O)c1ccccc1` (centres undefined) [PHENIBUT], the concentration at half-maximal activity (AC50) (on D(1A) dopamine receptor; on Prothrombin; in test [1]; in test [2]; at Mu-type opioid receptor; at Progesterone receptor) was over 30 µM in each case. Besides, the AC50 in test [3] is over 30 µM.

`C=CCSCC1Nc2cc(Cl)c(S(N)(=O)=O)cc2S(=O)(=O)N1` (centres undefined) [ALTHIAZIDE]: the concentration at half-maximal activity (AC50) (at D(1A) dopamine receptor; on Prothrombin; in test [1]; in test [2]; at Mu-type opioid receptor; at Progesterone receptor) was over 30 µM throughout. Besides, in test [3], the half-maximal activity concentration (AC50) was over 30 µM.

Regarding `CN1C(=O)/C(=N\NC(N)=S)c2ccccc21` [METHISAZONE], the AC50 at D(1A) dopamine receptor is over 30 µM; at Prothrombin it was over 30 µM; in test [1] it was over 30 µM; in test [2], over 10 µM; on Mu-type opioid receptor, over 30 µM; at Progesterone receptor it was over 30 µM. Besides, the concentration at half-maximal activity (AC50) in test [3] was over 30 µM.

As for `Cc1c(N(C)CS(=O)(=O)O)c(=O)n(-c2ccccc2)n1C` [METAMIZOLE], the AC50 (on D(1A) dopamine receptor; at Prothrombin; in test [1]; in test [2]; on Mu-type opioid receptor; on Progesterone receptor) was over 30 µM throughout. In test [3], this molecule came in with an AC50 of over 30 µM.

In the case of `COc1ccc(CN(CCN(C)C)c2ccccn2)cc1` [PYRILAMINE], the AC50 on D(1A) dopamine receptor is 24.2 µM; at Prothrombin, over 30 µM; in test [1], 26.4 µM; in test [2], over 30 µM; on Mu-type opioid receptor, 9.05 µM; at Progesterone receptor, over 30 µM. The molecule further showed an AC50 in test [3] of over 30 µM.

Regarding `COc1cc(N2CCC(N3CCN(C)CC3)CC2)ccc1Nc1ncc(Cl)c(Nc2ccccc2P(C)(C)=O)n1` [BRIGATINIB], the half-maximal activity concentration (AC50) at D(1A) dopamine receptor was over 30 µM; at Prothrombin, over 30 µM; in test [1], over 30 µM; in test [2], 0.183 µM; on Mu-type opioid receptor it was over 30 µM; on Progesterone receptor it was over 30 µM. Moreover, the half-maximal activity concentration (AC50) in test [3] was over 30 µM.

With `COC(=O)c1ccc(O)cc1` [METHYLPARABEN], the half-maximal activity concentration (AC50) (on D(1A) dopamine receptor; at Prothrombin; in test [1]; in test [2]; at Mu-type opioid receptor; at Progesterone receptor) was over 30 µM each time. This molecule also yielded an AC50 in test [3] of over 30 µM.

Turning to `COc1cc2c(cc1OC)CC(=O)N(CCCN(C)C[C@H]1Cc3cc(OC)c(OC)cc31)CC2` [IVABRADINE], the half-maximal activity concentration (AC50) at D(1A) dopamine receptor was over 30 µM; at Prothrombin it was over 30 µM; in test [1], 5.81 µM; in test [2], over 30 µM; at Mu-type opioid receptor, over 30 µM; on Progesterone receptor, over 30 µM. Moreover, the AC50 in test [3] was over 30 µM.

With `CN(C)CCOC(c1ccccc1)c1ccc(Br)cc1` (centres undefined) [BROMODIPHENHYDRAMINE], the AC50 on D(1A) dopamine receptor is 2.95 µM; on Prothrombin, over 30 µM; in test [1] it was 22.2 µM; in test [2] it was over 30 µM; on Mu-type opioid receptor it was 17.9 µM; at Progesterone receptor, over 30 µM. In test [3], the concentration at half-maximal activity (AC50) was 4.22 µM.

As for `CCN(CCCc1ccccc1)CCCc1ccccc1` [ALVERINE], the AC50 is 3.72 µM at D(1A) dopamine receptor; over 30 µM at Prothrombin; 0.029 µM in test [1]; over 30 µM in test [2]; 2 µM on Mu-type opioid receptor; over 30 µM on Progesterone receptor. The activity in test [3] was half-maximal at 1.15 µM (AC50).

With `c1ccc2c(c1)CCc1ccccc1N2C1CN2CCC1CC2` (centres undefined) [QUINUPRAMINE], the AC50 at D(1A) dopamine receptor is 2.41 µM; at Prothrombin, over 30 µM; in test [1] it was 23.3 µM; in test [2] it was over 30 µM; at Mu-type opioid receptor, 1.84 µM; at Progesterone receptor, over 30 µM. Further, the activity in test [3] was half-maximal at 4.32 µM (AC50).

Take `Cc1cc(N)c2ccccc2[n+]1CCCCCCCCCC[n+]1c(C)cc(N)c2ccccc21`: the AC50 is 1.04 µM on D(1A) dopamine receptor; 28.8 µM at Prothrombin; 2.53 µM in test [1]; over 30 µM in test [2]; 0.684 µM at Mu-type opioid receptor; 16 µM on Progesterone receptor. This molecule also registered an AC50 in test [3] of 1.47 µM.

Take `CC(C)(C)NC[C@H](O)COc1cccc2c1CCCC2=O` [LEVOBUNOLOL]: the AC50 at D(1A) dopamine receptor was over 30 µM; on Prothrombin it was over 30 µM; in test [1], 0.886 µM; in test [2], over 30 µM; on Mu-type opioid receptor, over 30 µM; on Progesterone receptor it was over 30 µM. The same molecule yielded an AC50 in test [3] of over 30 µM.

In the case of `CC(=O)O[C@]1(C(C)=O)CC[C@H]2[C@@H]3C=C(Cl)C4=CC(=O)CC[C@]4(C)[C@H]3CC[C@@]21C` [CHLORMADINONE ACETATE], the concentration at half-maximal activity (AC50) on D(1A) dopamine receptor is over 30 µM; at Prothrombin it was over 30 µM; in test [1], over 30 µM; in test [2] it was over 30 µM; on Mu-type opioid receptor, over 30 µM; at Progesterone receptor, 0.003 µM. The AC50 in test [3] is over 30 µM.

Regarding `CC1=CCC(C(C)(C)O)CC1O` (centres undefined) [SOBREROL], the concentration at half-maximal activity (AC50) (on D(1A) dopamine receptor; at Prothrombin; in test [1]; in test [2]; on Mu-type opioid receptor; on Progesterone receptor) was over 30 µM each time. The same molecule had an AC50 in test [3] of over 30 µM.

Regarding `CCOC(=O)[C@H](CCc1ccccc1)N[C@@H](C)C(=O)N(CC(=O)O)C1Cc2ccccc2C1`, the half-maximal activity concentration (AC50) (at D(1A) dopamine receptor; on Prothrombin; in test [1]; in test [2]; on Mu-type opioid receptor; at Progesterone receptor) was over 30 µM in each case. In addition, the AC50 in test [3] was over 30 µM.

Consider `CC(C)N(CCNC(=O)CN1CCCC1=O)C(C)C`, for which the AC50 (at D(1A) dopamine receptor; at Prothrombin; in test [1]; in test [2]; at Mu-type opioid receptor; at Progesterone receptor) was over 30 µM each time. In test [3], this molecule came in with an AC50 of over 30 µM.
